Reference: patent US11247970B2, “Selective inhibition of gluconeogenic activity” (Dana-Farber Cancer Institute, Inc., priority 2017, dated 2022)

How the values were obtained:
primary hepatocytes = experiment: Glucose production by primary hepatocytes (glucagon or Ad-PGC-1α); format: cell-based, mouse; design: glucagon- and PGC-1α-mediated glucose production: dose or concentration left out as unconfirmed
Procedure: For measurement of acetylation, gene expression and glucose production SR-18292 ([…]) was added to cells overnight and fresh compound was added the following day for additional 3 h before collecting the cells (for total of ˜18 h treatment). Where insulin and glucagon stimulation were performed, the medium was changed to starvation medium (DMEM, 0.2% BSA, 2 mM sodium pyruvate, and 1% penicillin/streptomycin) with fresh compound for the last 3 h and cells were stimulated with either 100 nM insulin or 200 nM glucagon for an extra 1.5 h. For glucose measurements following PGC-1α over expression cells were incubated for the last 3 h in glucose-free medium (phenol-red/glucose free DMEM, 0.2% BSA, 2 mM sodium pyruvate and 20 mM sodium lactate or 10 mM glycerol in case glycerol was used as substrate). For glucose measurements following glucagon stimulation cells were incubated for the last 4 h in the same glucose-free medium that also contained glucagon (200 nM). The glucose level in the medium was measured using a glucose assay kit from Eton Bioscience Inc. by adding […] of assay buffer to […] of medium followed by 15 min incubation at 37° C. Absorbance was measured at 490 nm.
PGC-1α activates hepatic gluconeogenic gene expression, and an increase in its acetylation status reduces expression of both Pck1 and G6pc genes (Rodgers et al., 2005; Yoon et al., 2001). […] Thus, a high-throughput screen with these 252 compounds at different doses was performed. Briefly, Hepatocytes were treated with forskolin for 1.5 hours to induce the expression of both Pck1 and G6pc genes, which mimics the fasting and PGC-1α-mediated gluconeogenic response. The dose response curves were used to calculate an inhibitory activity of the compounds by determining the difference in Ct values between compound treatment and forskolin control at each dose, and provided an estimated potency of the compounds in suppressing Pck1 and G6pc (FIGS. 4, 34). […] To specifically test the inhibitory activity of the remaining small molecule positive hits on PGC-1α-mediated glucose production, adenoviruses to ectopically express PGC-1α in primary hepatocytes were used. Similar to forskolin, PGC-1α overexpression induces gluconeogenic gene expression and promotes glucose release. Primary hepatocytes were treated with the chosen positive hit compounds that could suppress gluconeogenic gene expression, and the concentration of glucose released to the culture medium was measured.

HNF4α = experiment: Transcriptional luciferase reporter assay (Pck1 promoter fragment with HNF4α site) in U-2 OS cells; format: cell-based; details: 24 h
Procedure: U-2 OS cells were transfected with a fixed amount of DNA. After 6 h medium was changed and compound treatment started. The following morning medium was changed again and fresh compound was added for additional 3 h after which cells were collected (24 h post transfection) with 1× Passive Lysis Buffer (Promega). Firefly luciferase reporter was determined by addition of Luciferase Assay Substrate (Dual-Luciferase Reporter Assay System, Promega) and quantification of luminescence on a FLUOstar Omega plate reader (BMG Labtech). CMV-driven Renilla luciferase vector was cotransfected as an internal control. Data are presented as firefly luciferase reporter values normalized to Renilla values and are representative of at least two independent experiments.
The GCN5 acetyl transferase complex decreases PGC-1α gluconeogenic transcriptional activation by interacting with PGC-1α. This is achieved at least in part by reducing the ability of PGC-1α to co-activate the nuclear hormone receptor HNF4α. Co-activation of HNF4α by PGC-1α is required to promote transcription of the gluconeogenic genes Pck1 and G6pc. To test whether SR-18292 reduces the transcriptional activity of HNF4α that is induced by PGC-1α, a luciferase reporter construct driven by a fragment of the Pck1 promoter containing an HNF4α binding site was used. […]

[1] = Fasting insulin and liver pAkt in treated mice; format: in vivo
Procedure: Serum samples were gathered from blood collected by cardiac puncture. Insulin was measured with Ultra Sensitive Mouse Insulin ELISA Kit (Crystal Chem, 90080). Kits used to measure alanine transaminase (EALT-100), aspartate transaminase (EASTR-100), lactate dehydrogenase (DLDH-100) were purchased from Bioassay Systems. Kits used to measure lactate (MAK 064), b-hydroxybutyrate (MAK 041), Triglycerides (TR0100) were purchased from Sigma. Kit used to measure cholesterol (C7510) was purchased from Pointe Scientific. Kit used to measure non-esterified fatty acids was purchased from Wako.

HFD-fed mice = experiment: Hyperinsulinemic-euglycemic clamp; format: in vivo
Procedure: Hyperinsulinemic-euglycemic clamps were performed on mice fed HFD for 16 weeks as previously described with minor modifications (Jurczak et al., 2012). Briefly, an indwelling catheter was surgically implanted in the right jugular vein 7 days prior to study. Three days before study, mice were injected with SR-18292 and vehicle control following the same protocol described above. Mice were fasted overnight prior to clamps and then infused with a fixed amount of insulin [4 mU/(kg-min)] and a variable amount of 20% dextrose to maintain euglycemia. [3-H]glucose was included in the infusate to allow for the calculation of whole-body rates of glucose metabolism.

Cc1ccc(CN(CC(O)COc2cccc3[nH]ccc23)C(C)(C)C)cc1 (stereo not drawn) [SR-18292, 1-((1H-indol-4-yl)oxy)-3-(tert-butyl(4-methylbenzyl)amino)propan-2-ol]
glucose release after short treatment (primary hepatocytes; 3 hr treatment): no effect
glucose production from pyruvate and lactate or from glycerol as substrate (primary hepatocytes; Ad-PGC-1α hepatocytes): decreases glucose production
glucagon- and PGC-1α-mediated glucose production (primary hepatocytes; isolated hepatocytes): significantly reduced
transcriptional activity of HNF4α induced by PGC-1α (HNF4α): significantly reduced
basal (fasting) blood insulin levels ([1]; HFD 13 weeks): not significantly changed
phosphorylation of Akt in liver ([1]; fasted mice): not changed
glucose infusion rate vs vehicle (HFD-fed mice; HFD 16 weeks): substantially higher
peripheral glucose uptake (HFD-fed mice; HFD 16 weeks): not due to improved peripheral glucose uptake
endogenous glucose production (HFD-fed mice; basal and clamp conditions): reduced endogenous glucose production
